Experimental findings from ChEMBL document CHEMBL1159156, “Design, synthesis and biological activity of some 4-DAMP- related compounds” (Bioorg Med Chem Lett, 1995) are described below.

SMILES strings stand for the structures.

Assay [1] concerns the target T1, Muscarinic acetylcholine receptor M1 (Rattus norvegicus, UniProt P08482).
T1 sequence (P08482 whole entry): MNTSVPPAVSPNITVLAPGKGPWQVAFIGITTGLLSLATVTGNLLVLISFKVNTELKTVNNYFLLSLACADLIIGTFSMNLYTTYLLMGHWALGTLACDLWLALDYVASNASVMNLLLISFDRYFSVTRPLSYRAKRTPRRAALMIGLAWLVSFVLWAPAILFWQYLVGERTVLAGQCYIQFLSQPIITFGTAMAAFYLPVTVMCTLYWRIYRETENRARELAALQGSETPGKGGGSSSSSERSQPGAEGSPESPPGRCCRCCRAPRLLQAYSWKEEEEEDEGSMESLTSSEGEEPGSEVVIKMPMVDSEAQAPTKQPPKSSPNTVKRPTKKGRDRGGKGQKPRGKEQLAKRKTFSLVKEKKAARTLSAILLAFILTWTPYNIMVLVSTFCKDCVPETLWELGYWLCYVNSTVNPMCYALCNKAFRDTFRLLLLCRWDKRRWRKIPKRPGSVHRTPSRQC
As to the kind of experiment: Compound was tested for inhibiting [3H]pirenzepine Binding to Muscarinic receptor (M1) receptor in Rat Cortex Homogenates.

In assay [2] the target is Muscarinic acetylcholine receptor M3 (Cavia porcellus, UniProt Q8VH26). As to the kind of experiment: Evaluation of antagonistic affinity against muscarinic receptor (M3) in guinea pig ileum. The assay is classed as functional, tissue-based. To be noted: read-out: pA2 (converted).
For assay [3], the target named is Muscarinic acetylcholine receptor M3 (Rattus norvegicus, UniProt P08483). As to the kind of experiment: Compound was tested for inhibiting [3H]N-Methyl-scopolamine Binding to Muscarinic receptor (M3) in Rat Submaxillary Gland.
For assay [4], the target named is T2, Muscarinic acetylcholine receptor M4 (Homo sapiens, UniProt P08173).
T2 sequence (P08173 whole entry): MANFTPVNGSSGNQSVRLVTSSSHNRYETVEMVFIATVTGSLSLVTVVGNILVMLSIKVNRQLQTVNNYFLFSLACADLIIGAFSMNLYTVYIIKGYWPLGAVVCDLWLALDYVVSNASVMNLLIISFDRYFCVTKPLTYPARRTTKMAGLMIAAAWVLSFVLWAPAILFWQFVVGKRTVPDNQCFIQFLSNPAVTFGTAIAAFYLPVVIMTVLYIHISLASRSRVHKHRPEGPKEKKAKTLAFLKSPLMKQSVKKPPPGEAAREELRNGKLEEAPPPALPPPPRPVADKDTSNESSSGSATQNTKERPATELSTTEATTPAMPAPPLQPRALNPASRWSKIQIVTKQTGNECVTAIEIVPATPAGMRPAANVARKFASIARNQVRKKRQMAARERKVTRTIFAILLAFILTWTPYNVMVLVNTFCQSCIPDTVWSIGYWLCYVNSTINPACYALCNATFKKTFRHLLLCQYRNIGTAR
The experiment in a line: Compound was tested for binding affinity against Muscarinic acetylcholine receptor M4 in NG 108-15 cell homogenates. The assay is classed as cell-based.

Assay [5] concerns the target T3, Muscarinic acetylcholine receptor M2 (Rattus norvegicus, UniProt P10980).
T3 sequence (P10980 whole entry): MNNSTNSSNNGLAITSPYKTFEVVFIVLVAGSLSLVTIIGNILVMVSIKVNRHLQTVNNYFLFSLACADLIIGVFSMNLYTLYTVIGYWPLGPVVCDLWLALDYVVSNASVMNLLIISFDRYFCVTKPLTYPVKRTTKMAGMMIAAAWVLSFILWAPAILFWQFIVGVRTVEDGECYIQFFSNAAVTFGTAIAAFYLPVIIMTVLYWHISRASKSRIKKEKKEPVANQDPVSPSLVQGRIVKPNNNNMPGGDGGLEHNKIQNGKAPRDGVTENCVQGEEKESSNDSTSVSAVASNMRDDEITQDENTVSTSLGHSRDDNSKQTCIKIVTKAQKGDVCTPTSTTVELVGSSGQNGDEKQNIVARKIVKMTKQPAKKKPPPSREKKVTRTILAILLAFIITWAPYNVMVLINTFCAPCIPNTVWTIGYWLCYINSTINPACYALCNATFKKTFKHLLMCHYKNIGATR
As to the kind of experiment: Compound was tested for inhibiting [3H]N-Methyl-scopolamine Binding to Muscarinic receptor (M2) in Rat Heart.

Assay [6] has as its target Muscarinic acetylcholine receptor M2 (Cavia porcellus). The experiment in a line: Evaluation of antagonistic affinity against muscarinic receptor (M2) in guinea pig left atria. The conditions noted are these: read-out: pA2 (converted).

Sequence of Muscarinic acetylcholine receptor M3 (Cavia porcellus, UniProt Q8VH26) (Q8VH26 whole entry): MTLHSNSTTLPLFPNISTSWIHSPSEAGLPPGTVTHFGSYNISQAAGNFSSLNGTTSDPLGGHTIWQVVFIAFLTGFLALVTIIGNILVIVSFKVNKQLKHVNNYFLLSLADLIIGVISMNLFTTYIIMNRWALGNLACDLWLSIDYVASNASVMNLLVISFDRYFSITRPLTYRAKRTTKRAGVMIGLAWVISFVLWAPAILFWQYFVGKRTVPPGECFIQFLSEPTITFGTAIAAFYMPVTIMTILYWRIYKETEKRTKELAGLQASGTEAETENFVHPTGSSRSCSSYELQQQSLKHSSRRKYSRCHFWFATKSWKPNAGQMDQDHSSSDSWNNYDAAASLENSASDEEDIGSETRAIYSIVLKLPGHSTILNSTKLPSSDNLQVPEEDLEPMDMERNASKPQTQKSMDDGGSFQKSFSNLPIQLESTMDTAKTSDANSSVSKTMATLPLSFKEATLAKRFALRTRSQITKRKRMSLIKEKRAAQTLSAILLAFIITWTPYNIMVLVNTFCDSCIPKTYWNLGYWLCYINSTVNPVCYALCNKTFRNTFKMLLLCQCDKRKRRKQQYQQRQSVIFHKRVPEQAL
Sequence of Muscarinic acetylcholine receptor M3 (Rattus norvegicus, UniProt P08483) (P08483 whole entry): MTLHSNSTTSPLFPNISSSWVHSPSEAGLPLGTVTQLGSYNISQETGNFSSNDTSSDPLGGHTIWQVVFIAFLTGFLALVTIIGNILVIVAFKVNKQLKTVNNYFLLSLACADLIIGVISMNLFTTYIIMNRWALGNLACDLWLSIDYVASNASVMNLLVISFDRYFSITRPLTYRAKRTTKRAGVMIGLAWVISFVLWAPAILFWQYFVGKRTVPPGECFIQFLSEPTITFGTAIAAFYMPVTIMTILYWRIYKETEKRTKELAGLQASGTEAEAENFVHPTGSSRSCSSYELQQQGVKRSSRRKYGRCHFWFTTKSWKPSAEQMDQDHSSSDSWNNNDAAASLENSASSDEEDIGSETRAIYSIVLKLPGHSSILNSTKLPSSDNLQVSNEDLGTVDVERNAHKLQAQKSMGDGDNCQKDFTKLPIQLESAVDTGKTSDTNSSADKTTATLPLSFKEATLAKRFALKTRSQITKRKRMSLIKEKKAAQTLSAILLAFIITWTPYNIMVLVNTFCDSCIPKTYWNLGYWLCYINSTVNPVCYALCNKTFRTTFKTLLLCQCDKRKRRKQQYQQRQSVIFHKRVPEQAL

Consider `C[N+]1(C)C2CCC1CC1(C2)OC(=O)C(c2ccccc2)(c2ccccc2)O1` (stereo in doubt; 4b), for which the Ki in assay [1] was 0.794 nM; in assay [3], 50.1 nM; in assay [4], 4.37 nM. Also, the Kb in assay [2] is 20.9 nM.
In turn, `C[N+]1(C)CCC(OC(=O)C(c2ccccc2)c2ccccc2)CC1` [4-DAMP] showed a Ki in assay [1] of 0.589 nM. In other words, the sub-nanomolar range.
Take `C[N+]1(C)C2CCC1CC1(C2)OC(=O)C(c2ccccc2)(c2ccccc2)O1` (stereo in doubt; 4a): the Ki was 0.398 nM in assay [1], 10.5 nM in assay [3] and 4.68 nM in assay [4]. For the same molecule, the Kb in assay [2] is 3.63 nM.
Take `C[N+]1(C)CCC2(CC1)OC(=O)C(c1ccccc1)(c1ccccc1)O2`: the Ki in assay [1] was 5.01 nM; in assay [5], 2.75 nM; in assay [3] it was 2.95 nM. The Kb in assay [2] was 0.933 nM; in assay [6] it was 1.23 nM.

The term Ki denotes a measure of affinity in units of concentration, obtained from inhibition or displacement. Lower therefore signals tighter binding.
